Activity calls are given as the source filed them. The rule behind the calls is not given here.
Key:
[1] = (§1) Cytotoxicity activity against human HepG2 cells assessed by CellTiter-Glo luminescent cell viability assay.; format: toxicity, cell-based; parameters: assay stage confirmatory assay, source tissue liver; settings: HepG2 cells, read-out: IC50 relative
[2] = test system: HepG2; experiment: as §1; format: toxicity, cell-based; parameters: assay stage confirmatory assay, source tissue liver; settings: hepg2, read-out: IC50 relative

Compound | CC50 [1] | CC50 [2]
O=c1c2ccccc2sn1-c1ccccc1 | 10.5 µM (active) | 13 µM (inactive)
COc1cc(/C=C/C(=O)CC(=O)/C=C/c2ccc(O)c(OC)c2)ccc1O [CURCUMIN] | 5.3 µM (active) | 7.1 µM (active)
O=C1C(=O)c2ccccc2-c2ccccc21 [9,10-PHENANTHRENEQUINONE] | 1.1 µM (active) | 1.2 µM (active)
O=C1C(Cl)=C(NCCN2CCOCC2)C(=O)c2ncccc21 | 4.5 µM (active) | 4 µM (active)
Cc1ccc(-n2sc3ccccc3c2=O)cc1 | 8.7 µM (active) | 9.1 µM (active)
CN1CCN(c2ccc3nc(-c4c(N)c5c(F)cccc5[nH]c4=O)[nH]c3c2)CC1 [DOVITINIB] | 2.7 µM (active) | 4.4 µM (active)
CC(=O)N1CCSc2ccc(S(=O)(=O)N3CCN(Cc4ccc5c(c4)OCO5)CC3)cc21 | 6.4 µM (active) | –
CN(C)c1ccnc(CNC(=O)Nc2ncc(C(F)(F)F)s2)c1 | 0.6 µM (active) | –
Cc1nc(NC(=O)N2CCC[C@H]2C(N)=O)sc1-c1ccnc(C(C)(C)C(F)(F)F)c1 [ALPELISIB] | 6.1 µM (active) | –
Cc1ccc(NC(=O)c2nc(S(C)(=O)=O)ncc2Cl)cc1 | 4.1 µM (active) | –
CCOCCCNC(=O)c1nnn(-c2ccc3ncccc3c2)c1C | 3.1 µM (active) | –
Brc1c(Br)c(Br)c2[nH]cnc2c1Br | 7.4 µM (active) | –
COc1cc(CNc2cc(C)nc(N)n2)ccc1C | 6.7 µM (active) | –
Cc1cccc(Cl)c1OCCN(C)CC1(C)COC1 | 50 µM (inactive) | –
CCN(CC)S(=O)(=O)c1ccc(C(=O)Cn2ncc(Cl)c(Cl)c2=O)cc1 | 2 µM (active) | –
Cc1nn(-c2cccc(Cl)c2)nc1C(=O)NC1CCN(C)CC1 | 9.4 µM (active) | –
CCO[C@@H](CCNC(=O)c1csc(-c2ccoc2)n1)C(C)C | 1.3 µM (active) | –
O=c1c2ccccc2[se]n1-c1ccccc1 [EBSELEN] | 28.4 µM (inactive) | –
COc1ccc(NC(=O)C2=C(c3ccccc3)S(=O)(=O)CCO2)c(OC)c1 | 9.7 µM (active) | –
O=C(Nc1ccccc1-c1cn2c(CN3CCNCC3)csc2n1)c1cnc2ccccc2n1 | 1.6 µM (active) | –
CNC(=O)c1ccc(Nc2ncc(C(F)(F)F)c(NCc3nccnc3N(C)S(C)(=O)=O)n2)cc1 [DEFACTINIB] | 1.4 µM (inactive) | –

Compound | CC50 [1] | CC50 [2]
CC(=O)Nc1ccc(Nc2nc(C)cc(N3CCCC3)n2)cc1 | 10.2 µM (active) | –
Cc1coc2c1C(=O)C(=O)c1c-2ccc2c1CCCC2(C)C [TANSHINONE IIA] | 5 µM (active) | –
CC1(C)CC[C@]2(C(=O)O)CC[C@]3(C)[C@H](C(=O)C=C4[C@@]5(C)C=C(C#N)C(=O)C(C)(C)[C@@H]5CC[C@]43C)[C@@H]2C1 [BARDOXOLONE] | 3.7 µM (active) | –
Cc1cccc(C(=O)Nc2nc(-c3nccn3C)cs2)c1 | 4.7 µM (active) | –
O=[N+]([O-])c1ccc(CN2CCOCCOCCN(Cc3ccc([N+](=O)[O-])cc3)CCOCC2)cc1 | 10.4 µM (active) | –
CCN(Cc1ccc(OC)cc1)Cc1nc2c(F)cccc2[nH]1 | 10.2 µM (active) | –
Cc1c(C(=O)Nc2ccnc3ccnn23)cnn1-c1ccccc1F | 3.3 µM (active) | –
Cc1nc2ccccc2n1CCN1CCN(CCOc2ccccc2)CC1 | 7.5 µM (active) | –
CC(=O)N1c2ccc(-c3ccc(C(=O)O)cc3)cc2[C@H](Nc2ccc(Cl)cc2)C[C@@H]1C | 0.9 µM (active) | –
O=C(NC(NC(=S)Nc1ccc(F)c([N+](=O)[O-])c1)C(Cl)(Cl)Cl)C(c1ccccc1)c1ccccc1 (centres undefined) | 6.3 µM (active) | –
Cc1cc(OCCOCCN2CCN(C)CC2)c(Cl)c(C)c1Cl | 5.3 µM (active) | –
Cc1cccc(C(=O)Nc2ccc(C(=O)Nc3cccnc3)cc2)n1 | 5.8 µM (active) | –
CCCOc1ccc(NC(=O)N2CCN(c3ccncc3)CC2)cc1Cl | 7.4 µM (active) | –
C[C@H](Nc1nc(N)nc2ccccc12)c1ccccc1 | 3.9 µM (active) | –
CCOC(=O)C1CCCN(C(=O)C(=O)c2c[nH]c3ccccc23)C1 (centres undefined) | 9.8 µM (active) | –
CN(CCN1CCC(OC(=O)Nc2ccccc2-c2ccccc2)CC1)C(=O)c1ccc(CN2CCC(C(N)=O)CC2)cc1 [REVEFENACIN] | 13.2 µM (active) | –
CC1(C)Cc2c(sc(NC(=O)NCc3cccnc3)c2C(N)=O)CO1 | 12.4 µM (inactive) | –
CS(=O)(=O)N1CCc2ccc(NC(=O)Nc3cccc(Cl)c3)cc21 | 1.3 µM (active) | –
CCN(CC)c1cc(C)nc(Nc2ccc(NC(=O)C(C)C)cc2)n1 | 6.8 µM (active) | –
Cc1c(O)cccc1C(=O)NC(CSc1ccccc1)C(O)CN1CC2CCCCC2CC1C(=O)NC(C)(C)C (centres undefined) | 11.3 µM (active) | –
Cc1noc2ncnc(N3CCC(C(=O)N4CCc5ccccc54)CC3)c12 | 10.9 µM (active) | –

Compound | CC50 [1] | CC50 [2]
C[C@H](O)CN1CCC(CNCc2ccc(Br)cc2)CC1 | 5.3 µM (active) | –
Cn1cc(-c2cnn3c(N)c(Br)c([C@@H]4CCCNC4)nc23)cn1 [SCH-900776] | 10.9 µM (active) | –
CCN1C(=O)COc2ccc(NC(=O)c3cc(-c4ccc5c(c4)OCCO5)on3)cc21 | 50 µM (inactive) | –
CC(=O)c1cnc2ccc(-c3cc(Cl)c(O)c(Cl)c3)nc2c1N[C@H]1CC[C@H](CN(C)C)CC1 | 0.1 µM (active) | –
CC[C@@H]([C@H](C)O)n1ncn(-c2ccc(N3CCN(c4ccc(OC[C@@H]5CO[C@@](Cn6cncn6)(c6ccc(F)cc6F)C5)cc4)CC3)cc2)c1=O [POSACONAZOLE] | 19.6 µM (inactive) | –
CCCNC(=O)N1CC(Oc2ccc(-c3noc(C4CCOCC4)n3)cc2)C1 | 3.7 µM (active) | –
O=C(CCCN1CCC(O)(c2ccc(Cl)cc2)CC1)c1ccc(F)cc1 [HALOPERIDOL] | 9.6 µM (active) | –
OCCCNc1cc(-c2ccnc(Nc3cccc(Cl)c3)n2)ccn1 | 1.4 µM (active) | –
N#Cc1cnn(C(=O)c2ccc(OCc3ccccc3)cc2)c1N | 6.1 µM (inactive) | –
COc1cc(-c2nc(-c3cccs3)no2)cc(OC)c1O | 0.4 µM (active) | –
N#Cc1ccc(CNC(=O)CCCCCN2CCN(c3ccccc3-c3ccccc3)CC2)cc1 | 12.3 µM (active) | –
COCCCN(C(=O)CCl)c1nc(-c2ccc(OC)cc2)cs1 | 1.5 µM (active) | –
CC(C)N(CCC(=O)c1ccc2ccccc2c1)Cc1ccccc1 | 12.9 µM (active) | –
Cn1nccc1CCNC(=O)c1csc(-c2ccoc2)n1 | 2 µM (active) | –
Cc1sc2c(c1C)C(c1ccc(Cl)cc1)=N[C@@H](CC(N)=O)c1nnc(C)n1-2 | 0.3 µM (active) | –
O=C(N[C@H]1CN2CCC1CC2)c1cc2cccc(Cl)c2s1 | 5.9 µM (active) | –
COc1cc(C)c(Sc2cnc(NC(=O)c3ccc(CNC(C)C(C)(C)C)cc3)s2)cc1C(=O)N1CCN(C(C)=O)CC1 (centres undefined) | 7.5 µM (active) | –
COC(=O)C[C@@H]1N=C(c2ccc(Cl)cc2)c2c(sc(C)c2C)-n2c(C)nnc21 | 0.1 µM (active) | –
CCN(CC)S(=O)(=O)c1ccc(C(=O)Nc2cc(C)nn2-c2nc(C)cc(=O)[nH]2)cc1 | 6.5 µM (inactive) | –
C=CC(=O)Nc1ccc(CN2C(=O)N(c3cc(OC)cc(OC)c3)Cc3cnc(Nc4ccc(N5CCN(C)CC5)cc4)nc32)cc1 | 3.7 µM (active) | –
Cc1ccc(NC(=O)c2cc3ccccc3c(=O)[nH]2)cc1 | 50 µM (inactive) | –
